The values that follow are results of earlier work, collected in patent publication EP1336411A1, “Compositions and methods for improving enzyme replacement therapy of lysosomal storage diseases” (Academisch Medisch Centrum bij de Universiteit van Amsterdam, priority 2002, dated 2003).

By Km is commonly meant the concentration of substrate that gives half-maximal velocity.

This data set addresses alpha-Galactosidase A (Homo sapiens, UniProt P06280). Particulars: read-out: apparent Km; artificial substrate 4-methylumbelliferyl-alpha-D-galactopyranoside; pH 4.6 (maximal activity).

Sequence of alpha-Galactosidase A (P06280 32-429): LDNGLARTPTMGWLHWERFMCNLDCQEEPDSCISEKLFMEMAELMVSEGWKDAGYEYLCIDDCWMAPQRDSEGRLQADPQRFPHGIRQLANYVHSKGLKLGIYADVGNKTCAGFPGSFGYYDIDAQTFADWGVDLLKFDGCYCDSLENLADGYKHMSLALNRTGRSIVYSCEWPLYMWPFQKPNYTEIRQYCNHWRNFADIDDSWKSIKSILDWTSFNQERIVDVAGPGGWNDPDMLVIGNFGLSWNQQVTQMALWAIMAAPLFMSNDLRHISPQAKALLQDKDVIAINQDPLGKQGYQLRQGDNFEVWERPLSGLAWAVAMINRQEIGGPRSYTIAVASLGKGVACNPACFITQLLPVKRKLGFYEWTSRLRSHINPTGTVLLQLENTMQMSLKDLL

On to `Cc1cc(=O)oc2cc(O[C@H]3O[C@H](CO)[C@H](O)[C@H](O)[C@H]3O)ccc12` [4-methylumbelliferyl-alpha-D-galactopyranoside], for which the Km is 2000 µM.
